Experimental data published in patent US20250129050A1, “SYNTHESIS OF A KIF18A INHIBITOR” (Amgen Inc., priority 2022, published 2025).
Entries after “also recorded” stand apart in the source; their conditions may differ.

Assay: Dynamic Vapor Sorption (DVS) moisture sorption with pre and post DVS XRPD
Assay type: physicochemical
Conditions: after exposure to 80% relative humidity at 25° C. for 24 hours; hydrate
Method: Moisture sorption data were collected using a DVS Endeavour. A sample size of about 30 mg was used. The temperature was 25° C. The relative humidity (RH) was held to 80% for 24 hours. Mass was recorded at the beginning and end of the experiment. Stability and Hygroscopicity Features of Crystalline Compound 6a-I as shown by Pre and Post DVS XRPD Experiment: Crystalline Compound 6a-I was exposed to 80% relative humidity at 25° C. for 24 hours using a DVS Endeavor instrument. The mass was recorded at the beginning and end of the exposure. […] Dynamic Vapor Sorption (DVS): The crystalline Compound 6a-I can be characterized by a DVS moisture sorption profile.

## O=S(CCOCc1ccccc1)[O][Ca][O]S(=O)CCOCc1ccccc1 (stereo not shown) [Compound 6a-I, calcium 2-(benzyloxy)ethane-1-sulfinate 4/3 hydrate]
  crystalline form stability (XRPD pre DVS vs post DVS): no crystalline form change; also recorded: stable crystalline polymorph form
